Reference: patent US20230131899A1, “INHIBITORS OF MICROBIALLY INDUCED AMYLOID” (Axial Therapeutics, Inc., priority 2020, published 2023)
Read-outs that look alike come from different tables or passages of the source.

Biological target: T1, human α-synuclein (Homo sapiens, UniProt P37840)
T1 construct: the full-length gene for untagged human α-synuclein was inserted; made in house; host or cells: E. coli BL21(DE3), plasmid derived from pT7 or pET11a
Test: Cell-free Thioflavin T assay of α-synuclein aggregation (αSyn ThT Assay)
Format: biochemical
Conditions: αSyn 50 μM, compounds at 100 μM
Procedure, shortened: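 Untagged full-length human α-synuclein from E. coli, 50 μM, with 20-40 μM ThT, 1% DMSO, compound at 20-100 μM and a glass bead, 37° C. with shaking. Fluorescence (ex 438/em 495 nm) read hourly to 73 h. Compound-only background subtracted and values normalised to vehicle at 36-72 h or final timepoint, giving % inhibition.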

[1] = mean % inhibition of αSyn aggregation relative to DMSO control, read-out: αSyn ThT Assay % Inhibition
[2] = class symbol, read-out: αSyn ThT Assay % Inhibition (activity range)

`O=C(O)C1C[S+]([O-])c2c(-c3cccc(C(F)(F)F)c3)c(Cc3cccc4ccccc34)cc(=O)n21` (racemic) [Compound 027b, 7-(naphthalen-1-ylmethyl)-5-oxo-8-(3-(trifluoromethyl)phenyl)-2,3-dihydro-5H-thiazolo[3,2-a]pyridine-3-carboxylic acid 1-oxide] was tested, and the inhibition at 100 µM [1] was 4% and the inhibition at 100 µM [2] was -10 to 10%.
For `CN(C)CCN1CC(C(=O)O)n2c(c(-c3cccc(C(F)(F)F)c3)c(Cc3cccc4ccccc34)cc2=O)S1(=O)=O` (centres unmarked) [Compound 017, 2-(2-(dimethylamino)ethyl)-8-(naphthalen-1-ylmethyl)-6-oxo-9-(3-(trifluoromethyl)phenyl)-3,4-dihydro-2H,6H-pyrido[1,2-e][1,2,5]thiadiazine-4-carboxylic acid 1,1-dioxide], the inhibition at 100 µM [1] was 53% and the inhibition at 100 µM [2] was 31 to 60%.
`CN1CC(C(=O)O)n2c1c(-c1cccc(C(F)(F)F)c1)c(Cc1cccc3ccccc13)c(Br)c2=O` (centres unmarked) [Compound 119, 6-bromo-1-methyl-7-(naphthalen-1-ylmethyl)-5-oxo-8-(3-(trifluoromethyl)phenyl)-1,2,3,5-tetrahydroimidazo[1,2-a]pyridine-3-carboxylic acid] gave an inhibition at 100 µM [1] of 41% and an inhibition at 100 µM [2] of 31 to 60%.
`CCCCCN1CC(C(=O)O)n2c(c(-c3cccc(C(F)(F)F)c3)c(Cc3cccc4ccccc34)cc2=O)S1(=O)=O` (racemic) [Compound 025, 8-(naphthalen-1-ylmethyl)-6-oxo-2-pentyl-9-(3-(trifluoromethyl)phenyl)-3,4-dihydro-2H,6H-pyrido[1,2-e][1,2,5]thiadiazine-4-carboxylic acid 1,1-dioxide] gave an inhibition at 100 µM [1] of 59% and an inhibition at 100 µM [2] of 31 to 60%.
With `CN1CC(C(=O)O)n2c(c(-c3cccc(C(F)(F)F)c3)c(Cc3cccc4ccccc34)c(C(N)=O)c2=O)S1(=O)=O` (centres unmarked) [Compound 109, 7-carbamoyl-2-methyl-8-(naphthalen-1-ylmethyl)-6-oxo-9-(3-(trifluoromethyl)phenyl)-3,4-dihydro-2H,6H-pyrido[1,2-e][1,2,5]thiadiazine-4-carboxylic acid 1,1-dioxide] the inhibition at 100 µM [1] was 99% and the inhibition at 100 µM [2] was over 60%.
For `COc1ccc(CN2C[C@@H](C(=O)O)n3c(c(-c4cccc(C(F)(F)F)c4)c(Cc4cccc5ccccc45)cc3=O)S2(=O)=O)cc1` (single isomer, unassigned) [Compound 026a], the inhibition at 100 µM [1] was 51% and the inhibition at 100 µM [2] was 31 to 60%.
Compound `CN1CC(C(N)=O)n2c(c(-c3cccc(C(F)(F)F)c3)c(Cc3cccc4ccccc34)cc2=O)S1(=O)=O` (centres unmarked) [Compound 030, 2-methyl-8-(naphthalen-1-ylmethyl)-6-oxo-9-(3-(trifluoromethyl)phenyl)-3,4-dihydro-2H,6H-pyrido[1,2-e][1,2,5]thiadiazine-4-carboxamide 1,1-dioxide] has an inhibition at 100 µM [1] of 4% and an inhibition at 100 µM [2] of -10 to 10%.
`NC(=O)CN1CC(C(=O)O)n2c(c(-c3cccc(C(F)(F)F)c3)c(Cc3cccc4ccccc34)cc2=O)S1(=O)=O` (centres unmarked) [Compound 028, 2-(2-amino-2-oxoethyl)-8-(naphthalen-1-ylmethyl)-6-oxo-9-(3-(trifluoromethyl)phenyl)-3,4-dihydro-2H,6H-pyrido[1,2-e][1,2,5]thiadiazine-4-carboxylic acid 1,1-dioxide] gave an inhibition at 100 µM [1] of 33% and an inhibition at 100 µM [2] of 31 to 60%.
For `O=C(O)C1CSc2c(-c3cccc(C(F)(F)F)c3)c(Cc3cccc4ccccc34)cc(=O)n21` (racemic) [Compound 011, 7-(naphthalen-1-ylmethyl)-5-oxo-8-(3-(trifluoromethyl)phenyl)-2,3-dihydro-5H-thiazolo[3,2-a]pyridine-3-carboxylic acid], the inhibition at 100 µM [1] was 56% and the inhibition at 100 µM [2] was 31 to 60%.
Work on `C=CCCN1CC(C(=O)O)n2c(c(-c3cccc(C(F)(F)F)c3)c(Cc3cccc4ccccc34)cc2=O)S1(=O)=O` (centres unmarked) [Compound 024, 2-(but-3-en-1-yl)-8-(naphthalen-1-ylmethyl)-6-oxo-9-(3-(trifluoromethyl)phenyl)-3,4-dihydro-2H,6H-pyrido[1,2-e][1,2,5]thiadiazine-4-carboxylic acid 1,1-dioxide] yielded an inhibition at 100 µM [1] of 69% and an inhibition at 100 µM [2] of over 60%.
With `CN1CC(C(=O)O)n2c(c(-c3cccc(C(F)(F)F)c3)c(Cc3cccc4ccccc34)c(N)c2=O)S1(=O)=O` (centres unmarked) [Compound 074, 7-amino-2-methyl-8-(naphthalen-1-ylmethyl)-6-oxo-9-(3-(trifluoromethyl)phenyl)-3,4-dihydro-2H,6H-pyrido[1,2-e][1,2,5]thiadiazine-4-carboxylic acid 1,1-dioxide] the inhibition at 100 µM [1] was 38% and the inhibition at 100 µM [2] was 31 to 60%.
`CCN1CC(C(=O)O)n2c(c(-c3cccc(C(F)(F)F)c3)c(Cc3cccc4ccccc34)cc2=O)S1(=O)=O` (single isomer, unassigned) [Compound 015a, 2-ethyl-8-(naphthalen-1-ylmethyl)-6-oxo-9-(3-(trifluoromethyl)phenyl)-3,4-dihydro-2H,6H-pyrido[1,2-e][1,2,5]thiadiazine-4-carboxylic acid 1,1-dioxide] showed an inhibition at 100 µM [1] of 62% and an inhibition at 100 µM [2] of over 60%.
In the case of `CCCN1CC(C(=O)O)n2c(c(-c3cccc(C(F)(F)F)c3)c(Cc3cccc4ccccc34)c(NC3CCCC3)c2=O)S1(=O)=O` (centres unmarked) [Compound 126, 7-(cyclopentylamino)-8-(naphthalen-1-ylmethyl)-6-oxo-2-propyl-9-(3-(trifluoromethyl)phenyl)-3,4-dihydro-2H,6H-pyrido[1,2-e][1,2,5]thiadiazine-4-carboxylic acid 1,1-dioxide], the inhibition at 100 µM [1] is reported as 32% and the inhibition at 100 µM [2] is reported as 31 to 60%.
`O=C(O)[C@@H]1CS(=O)(=O)c2c(-c3cccc(C(F)(F)F)c3)c(Cc3cccc4ccccc34)cc(=O)n21` (single isomer, unassigned) [Compound 010a, 7-(naphthalen-1-ylmethyl)-5-oxo-8-(3-(trifluoromethyl)phenyl)-2,3-dihydro-5H-thiazolo[3,2-a]pyridine-3-carboxylic acid 1,1-dioxide] showed an inhibition at 100 µM [1] of 41% and an inhibition at 100 µM [2] of 31 to 60%.
Compound `O=C(O)C1CN(CCCO)S(=O)(=O)c2c(-c3cccc(C(F)(F)F)c3)c(Cc3cccc4ccccc34)c(NC3CCCC3)c(=O)n21` (centres unmarked) [Compound 120, 7-(cyclopentylamino)-2-(3-hydroxypropyl)-8-(naphthalen-1-ylmethyl)-6-oxo-9-(3-(trifluoromethyl)phenyl)-3,4-dihydro-2H,6H-pyrido[1,2-e][1,2,5]thiadiazine-4-carboxylic acid 1,1-dioxide] has an inhibition at 100 µM [1] of 40% and an inhibition at 100 µM [2] of 31 to 60%.
`O=C(O)C1CN(CCCCCO)S(=O)(=O)c2c(-c3cccc(C(F)(F)F)c3)c(Cc3cccc4ccccc34)c(NC3CCCC3)c(=O)n21` (centres unmarked) [Compound 122, 7-(cyclopentylamino)-2-(5-hydroxypentyl)-8-(naphthalen-1-ylmethyl)-6-oxo-9-(3-(trifluoromethyl)phenyl)-3,4-dihydro-2H,6H-pyrido[1,2-e][1,2,5]thiadiazine-4-carboxylic acid 1,1-dioxide] was tested, and the inhibition at 100 µM [1] was 38% and the inhibition at 100 µM [2] was 31 to 60%.
Work on `O=C(O)C1CSc2c(-c3cccc(C(F)(F)F)c3)c(Cc3cccc4ccccc34)cc(=O)n21` (single isomer, unassigned) [Compound 011a, 7-(naphthalen-1-ylmethyl)-5-oxo-8-(3-(trifluoromethyl)phenyl)-2,3-dihydro-5H-thiazolo[3,2-a]pyridine-3-carboxylic acid] yielded an inhibition at 100 µM [1] of 13% and an inhibition at 100 µM [2] of 11 to 30%.
`O=C(O)[C@H]1CS(=O)(=O)c2c(-c3cccc(C(F)(F)F)c3)c(Cc3cccc4ccccc34)cc(=O)n21` (single isomer, unassigned) [Compound 010b, 7-(naphthalen-1-ylmethyl)-5-oxo-8-(3-(trifluoromethyl)phenyl)-2,3-dihydro-5H-thiazolo[3,2-a]pyridine-3-carboxylic acid 1,1-dioxide] was tested, and the inhibition at 100 µM [1] was 35% and the inhibition at 100 µM [2] was 31 to 60%.
`CCCN1CC(C(=O)O)n2c(c(-c3cccc(C(F)(F)F)c3)c(Cc3cccc4ccccc34)c(NC3CCOCC3)c2=O)S1(=O)=O` (centres unmarked) [Compound 127, 8-(naphthalen-1-ylmethyl)-6-oxo-2-propyl-7-((tetrahydro-2H-pyran-4-yl)amino)-9-(3-(trifluoromethyl)phenyl)-3,4-dihydro-2H,6H-pyrido[1,2-e][1,2,5] thiadiazine-4-carboxylic acid 1,1-dioxide] showed an inhibition at 100 µM [1] of 67% and an inhibition at 100 µM [2] of over 60%.
`O=C(O)C1CN(CCCCO)S(=O)(=O)c2c(-c3cccc(C(F)(F)F)c3)c(Cc3cccc4ccccc34)c(NC3CCCC3)c(=O)n21` (centres unmarked) [Compound 121, 7-(cyclopentylamino)-2-(4-hydroxybutyl)-8-(naphthalen-1-ylmethyl)-6-oxo-9-(3-(trifluoromethyl)phenyl)-3,4-dihydro-2H,6H-pyrido[1,2-e][1,2,5]thiadiazine-4-carboxylic acid 1,1-dioxide] showed an inhibition at 100 µM [1] of 27% and an inhibition at 100 µM [2] of 11 to 30%.
For `CC(C)N1CC(C(=O)O)n2c(c(-c3cccc(C(F)(F)F)c3)c(Cc3cccc4ccccc34)c(NC3CCCC3)c2=O)S1(=O)=O` (centres unmarked) [Compound 123, 7-(cyclopentylamino)-2-isopropyl-8-(naphthalen-1-ylmethyl)-6-oxo-9-(3-(trifluoromethyl)phenyl)-3,4-dihydro-2H,6H-pyrido[1,2-e][1,2,5]thiadiazine-4-carboxylic acid 1,1-dioxide], the inhibition at 100 µM [1] was 76% and the inhibition at 100 µM [2] was over 60%.
`Nc1c(Cc2cccc3ccccc23)c(-c2cccc(C(F)(F)F)c2)c2n(c1=O)C(C(=O)O)CS2(=O)=O` (centres unmarked) [Compound 023, 6-amino-7-(naphthalen-1-ylmethyl)-5-oxo-8-(3-(trifluoromethyl)phenyl)-2,3-dihydro-5H-thiazolo[3,2-a]pyridine-3-carboxylic acid 1,1-dioxide] gave an inhibition at 100 µM [1] of 21% and an inhibition at 100 µM [2] of 11 to 30%.
